Among the data in patent publication US9884063B2, “Amido-substituted azole compounds” (Bayer Pharma Aktiengesellschaft, priority 2014, dated 2018) are IC50 values, retold here.

A value given as a limit tells only on which side of the number the result lay.

This experiment deals with T1, TNKS1 (Homo sapiens, UniProt O95271).
T1 sequence (O95271 1-1327): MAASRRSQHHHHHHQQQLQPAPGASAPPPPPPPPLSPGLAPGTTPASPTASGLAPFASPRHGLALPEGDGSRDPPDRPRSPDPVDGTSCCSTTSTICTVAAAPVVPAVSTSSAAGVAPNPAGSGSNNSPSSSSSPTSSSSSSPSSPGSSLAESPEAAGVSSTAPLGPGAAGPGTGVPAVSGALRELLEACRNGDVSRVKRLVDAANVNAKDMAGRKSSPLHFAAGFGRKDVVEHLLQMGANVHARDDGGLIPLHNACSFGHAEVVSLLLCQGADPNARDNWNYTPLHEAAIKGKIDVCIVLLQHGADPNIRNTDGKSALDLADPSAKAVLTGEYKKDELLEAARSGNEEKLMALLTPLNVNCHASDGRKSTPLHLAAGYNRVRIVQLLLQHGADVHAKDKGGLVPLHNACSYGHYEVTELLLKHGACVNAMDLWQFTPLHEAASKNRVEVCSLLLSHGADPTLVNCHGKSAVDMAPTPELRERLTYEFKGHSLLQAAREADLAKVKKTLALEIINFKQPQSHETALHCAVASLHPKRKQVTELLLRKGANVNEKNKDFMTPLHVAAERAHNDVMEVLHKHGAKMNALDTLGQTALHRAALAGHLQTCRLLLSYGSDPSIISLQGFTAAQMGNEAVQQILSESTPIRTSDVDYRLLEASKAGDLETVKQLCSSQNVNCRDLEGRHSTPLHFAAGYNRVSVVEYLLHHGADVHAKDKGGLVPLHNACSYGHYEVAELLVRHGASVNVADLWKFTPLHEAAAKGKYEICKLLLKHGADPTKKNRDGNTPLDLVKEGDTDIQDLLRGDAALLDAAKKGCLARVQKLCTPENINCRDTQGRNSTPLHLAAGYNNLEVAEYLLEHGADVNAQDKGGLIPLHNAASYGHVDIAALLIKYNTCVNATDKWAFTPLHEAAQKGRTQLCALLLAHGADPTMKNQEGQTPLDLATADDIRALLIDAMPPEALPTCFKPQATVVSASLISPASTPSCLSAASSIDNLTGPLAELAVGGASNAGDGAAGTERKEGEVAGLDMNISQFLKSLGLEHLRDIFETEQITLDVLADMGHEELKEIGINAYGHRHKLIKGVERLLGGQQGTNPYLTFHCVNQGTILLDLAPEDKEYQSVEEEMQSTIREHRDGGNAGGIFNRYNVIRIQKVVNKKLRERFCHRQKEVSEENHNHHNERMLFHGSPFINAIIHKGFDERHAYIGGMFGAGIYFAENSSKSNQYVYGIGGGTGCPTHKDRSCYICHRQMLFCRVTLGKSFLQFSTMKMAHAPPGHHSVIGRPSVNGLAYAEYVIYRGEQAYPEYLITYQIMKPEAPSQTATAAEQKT
Nature of the experiment: Modified TNKS1 Assay 3 (BPS kit #80573, biotin-NAD+, 96 well). It counts as biochemical. To be noted: human TNKS1, BPS kit #80573, 96 well. Summed up:
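Chemiluminescent assay of TNKS1-catalysed ribosylation of a protein substrate with biotin-labelled NAD+, detected via streptavidin-HRP; run per kit protocol. Inhibition lowers the signal, and IC50 is the compound concentration halving the normalised readout.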
The compound `CNC(=O)c1nc[nH]c1C(=O)Nc1ccc(NC(=O)c2ccc(F)cc2Cl)cc1` [Example 12, N^5-{4-[(2-chloro-4-fluorobenzoyl)amino]phenyl}-N^4-methyl-1H-imidazole-4,5-dicarboxamide] gave an IC50 of 260 nM. That is a sub-micromolar value.

On to `CNC(=O)c1nc[nH]c1C(=O)Nc1ccc(NC(=O)c2ccc(F)cc2Cl)nc1` [Example 16, N^5-{6-[(2-chloro-4-fluorobenzoyl)amino]pyridin-3-yl}-N^4-methyl-1H-imidazole-4,5-dicarboxamide], for which the half-inhibitory concentration (IC50) is 130 nM.

The compound `O=C(Nc1ccc(NC(=O)c2[nH]cnc2C(=O)NCC(F)(F)F)cc1)c1ccc(F)cc1Cl` [Example 30, N^4-{4-[(2-chloro-4-fluorobenzoyl)amino]phenyl}-N^5-(2,2,2-trifluoroethyl)-1H-imidazole-4,5-dicarboxamide] yielded an IC50 of 400 nM.

Regarding `CNC(=O)c1nc[nH]c1C(=O)Nc1ccc(NC(=O)c2c(F)cc(F)cc2Cl)cc1` [Example 118, N^5-{4-[(2-chloro-4,6-difluorobenzoyl)amino]phenyl}-N^4-methyl-1H-imidazole-4,5-dicarboxamide], the IC50 was above 500 nM.

Consider `NC(=O)c1nc[nH]c1C(=O)Nc1ccc(NC(=O)c2ccc(F)cc2Cl)cc1` [Example 121], for which the IC50 is above 500 nM.

Turning to `CC1CCN(CCNC(=O)c2nc[nH]c2C(=O)Nc2ccc(NC(=O)c3ccc(F)cc3Cl)cc2)CC1` [Example 126, N^5-{4-[(2-chloro-4-fluorobenzoyl)amino]phenyl}-N^4-[2-(4-methylpiperidin-1-yl)ethyl]-1H-imidazole-4,5-dicarboxamide], the 50% inhibitory concentration (IC50) is 2 nM.

`COCCNC(=O)c1[nH]cnc1C(=O)Nc1ccc(NC(=O)c2ccc(F)cc2Cl)cc1` [Example 130, N^4-{4-[(2-chloro-4-fluorobenzoyl)amino]phenyl}-N^5-(2-methoxyethyl)-1H-imidazole-4,5-dicarboxamide] registered an IC50 of 150 nM.

In turn, `CC1CCCN(CCNC(=O)c2[nH]cnc2C(=O)Nc2ccc(NC(=O)c3ccc(F)cc3Cl)cc2)C1` (centres unmarked) [Example 208, N^4-{4-[(2-chloro-4-fluorobenzoyl)amino]phenyl}-N^5-[2-(3-methylpiperidin-1-yl)ethyl]-1H-imidazole-4,5-dicarboxamide] returned a 50% inhibitory concentration (IC50) of 40 nM.

Take `O=C(Nc1ccc(NC(=O)c2nc[nH]c2C(=O)NCCN2CCCCC2)cc1)c1ccc(F)cc1Br` [Example 216, N^4-{4-[(2-bromo-4-fluorobenzoyl)amino]phenyl}-N^5-[2-(piperidin-1-yl)ethyl]-1H-imidazole-4,5-dicarboxamide]: the IC50 is 3 nM.

Consider `O=C(Nc1ccc(NC(=O)c2nc[nH]c2C(=O)NCCN2CCCC(F)C2)cc1)c1ccc(F)cc1Cl` (centres unmarked) [Example 226, N^4-{4-[(2-chloro-4-fluorobenzoyl)amino]phenyl}-N^5-[2-(3-fluoropiperidin-1-yl)ethyl]-1H-imidazole-4,5-dicarboxamide], for which half-maximal inhibition (IC50) required 40 nM.

`O=C(Nc1ccc(NC(=O)c2nc[nH]c2C(=O)NC2CCOC2)cc1)c1ccc(F)cc1Cl` (centres unmarked) [Example 236, N^4-{4-[(2-chloro-4-fluorobenzoyl)amino]phenyl}-N^5-(tetrahydrofuran-3-yl)-1H-imidazole-4,5-dicarboxamide]: the half-inhibitory concentration (IC50) was 430 nM.

In the case of `CNC(=O)c1nc[nH]c1C(=O)Nc1ccc(NC(=O)c2cc(OC)c(OC)cc2Cl)cc1` [Example 240, N^5-{4-[(2-chloro-4,5-dimethoxybenzoyl)amino]phenyl}-N^4-methyl-1H-imidazole-4,5-dicarboxamide], 20 nM corresponded to half-maximal inhibition (IC50).

For the compound `CNC(=O)c1nc[nH]c1C(=O)Nc1ccc(NC(=O)c2cc(F)c(F)cc2Cl)cc1` [Example 242, N^5-{4-[(2-chloro-4,5-difluorobenzoyl)amino]phenyl}-N^4-methyl-1H-imidazole-4,5-dicarboxamide], half-maximal inhibition (IC50) was put at 380 nM.

For the compound `CNC(=O)c1nc[nH]c1C(=O)Nc1ccc(NC(=O)c2ccc(C)cc2Cl)cc1` [Example 244, N^5-{4-[(2-chloro-4-methylbenzoyl)amino]phenyl}-N^4-methyl-1H-imidazole-4,5-dicarboxamide], inhibition was half-maximal at 150 nM (IC50).

In general, IC50 refers to the point on the concentration scale where inhibition reaches its midpoint.
